Data on seven molecules can be found in BindingDB's records for doi:10.1021/acsmedchemlett.7b00245 (University of Iowa, 2017).

Each structure is given as a SMILES string. pEC50: −log10 of the molar value.

The pEC50 is the EC50 on a negative log10 scale, so that one unit is a factor of ten.

A short description of the assay: Activation of BTN3A1 in human PBMC-derived Vgamma9Vdelta2 T cells assessed as induction of interleukin 2 stimulated cell proliferation by measuring increase in CD3 positive cells incubated for 3 days followed by 11 days incubation post compound wash out with subsequent stimulation with IL-2 every 3 days measured after 14 days by flow cytometr. (In general: A flow cytometer gives signals particle by particle.)
Consider `COP(=O)(CC/C=C(\C)CO)Oc1cccc2ccccc12` (configuration not stated), for which the negative-log EC50 (pEC50) was 5.26. Take `C/C(=C\CCP(=O)(COC(=O)C(C)(C)C)Oc1cccc2ccccc12)CO` (configuration not stated): the negative-log EC50 (pEC50) is 9.10. Consider `C/C(=C\CCP(=O)(COC(=O)C(C)(C)C)OCOC(=O)C(C)(C)C)CO` (configuration not stated), for which the pEC50 was 8.27. To `C/C(=C\CCP(=O)(O)Oc1cccc2ccccc12)CO` belongs 6.21.

Consider `C/C(=C\CCP(=O)(O)Oc1ccccc1)CO`, for which the negative-log EC50 (pEC50) is 6.06.

On to `COP(=O)(CC/C=C(\C)CO)Oc1ccccc1` (configuration not stated), for which the pEC50 is 4.48.

As for `C/C(=C\CCP(=O)(COC(=O)C(C)(C)C)Oc1ccccc1)CO` (configuration not stated), the negative-log EC50 (pEC50) is 7.85.
